Measured values taken from patent publication US12398154B2, “Azaquinazoline pan-KRas inhibitors” (Mirati Therapeutics, Inc., priority 2020, dated 2025).

Legend:
KRas G12R = KRas G12R (Homo sapiens, UniProt P01116, G12R); assay: biochemical;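 also: TR-FRET displacement assay of compound binding to KRas, read after one hour at room temperature, potency from a four-parameter fit of percent-of-control values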
Method: (§1) The ability of a compound to bind to KRas was measured using a TR-FRET displacement assay. […] After a 60-minute incubation at room temperature, the reaction was measured using a BMG LABTECH CLARIO star Plus via TR-FRET. […] The POC values were fit to a 4-parameter IC50 equation and the IC50 value reported.

KRas G12V = KRas G12V (Homo sapiens, UniProt P01116, G12V); assay: biochemical;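 also: KRas binding measured by TR-FRET displacement at room temperature, IC50 fitted from percent of control values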
Sequence of KRas G12V (P01116 1-169 isoform P01116-2 G12V): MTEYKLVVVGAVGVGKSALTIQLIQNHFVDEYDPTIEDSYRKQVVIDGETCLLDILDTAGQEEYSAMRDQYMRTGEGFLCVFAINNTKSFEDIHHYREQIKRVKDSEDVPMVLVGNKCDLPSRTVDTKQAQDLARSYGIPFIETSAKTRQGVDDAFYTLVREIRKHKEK
Method: as §1

KRas G12S = KRas G12S (Homo sapiens, UniProt P01116, G12S); assay: biochemical;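 also: TR-FRET displacement binding to KRas, read after one hour incubation at room temperature, IC50 from four-parameter fit of percent of control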
Sequence of KRas G12S (P01116 1-169 isoform P01116-2 G12S): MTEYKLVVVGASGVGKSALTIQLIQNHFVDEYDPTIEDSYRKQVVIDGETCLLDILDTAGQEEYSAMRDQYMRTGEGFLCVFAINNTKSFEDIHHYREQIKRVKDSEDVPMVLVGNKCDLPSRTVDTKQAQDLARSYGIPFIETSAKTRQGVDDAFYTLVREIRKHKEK
Method: as §1

KRas G12D = KRas G12D (Homo sapiens, UniProt P01116, G12D); assay: biochemical;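 also: TR-FRET displacement binding assay on KRas, read after a one-hour incubation at room temperature, IC50 fitted from percent-of-control values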
Sequence of KRas G12D (P01116 1-169 isoform P01116-2 G12D): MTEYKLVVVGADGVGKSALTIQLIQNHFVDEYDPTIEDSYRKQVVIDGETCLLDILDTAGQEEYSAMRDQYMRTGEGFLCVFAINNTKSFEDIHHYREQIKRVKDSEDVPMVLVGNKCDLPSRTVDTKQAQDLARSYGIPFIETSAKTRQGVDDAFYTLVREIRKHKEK
Method: as §1

KRas G13D = target: T1, KRas G13D (Homo sapiens, UniProt P01116, G13D); assay: KRas binding assay (TR-FRET displacement);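 also: One-hour room temperature incubation before TR-FRET reading, IC50 from a four-parameter curve fit to percent-of-control data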
T1 construct: Biotinylated KRas (corresponding to amino acids 1-169, produced at Accelegan Inc.); biotin (biotinylated); purchased Accelegan Inc
T1 sequence (P01116 1-169 isoform P01116-2 G13D): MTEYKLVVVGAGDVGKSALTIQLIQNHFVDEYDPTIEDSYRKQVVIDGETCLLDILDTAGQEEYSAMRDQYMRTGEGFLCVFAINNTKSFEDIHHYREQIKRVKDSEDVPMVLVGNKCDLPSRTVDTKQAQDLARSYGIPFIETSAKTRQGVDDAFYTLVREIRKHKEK
Method: as §1

KRas G12A = KRas G12A (Homo sapiens, UniProt P01116, G12A); assay: biochemical;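 also: binding to KRas measured by TR-FRET displacement after one hour at room temperature, IC50 from a four-parameter fit of percent-of-control values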
Sequence of KRas G12A (P01116 1-169 isoform P01116-2 G12A): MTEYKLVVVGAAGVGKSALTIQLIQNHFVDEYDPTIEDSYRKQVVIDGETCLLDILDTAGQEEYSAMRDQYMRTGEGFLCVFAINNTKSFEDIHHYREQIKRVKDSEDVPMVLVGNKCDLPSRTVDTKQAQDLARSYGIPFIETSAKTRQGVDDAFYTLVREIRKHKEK
Method: as §1

KRas G12C = KRas G12C (Homo sapiens, UniProt P01116, G12C); assay: biochemical;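 also: binding to KRas assessed by TR-FRET displacement after one hour incubation at room temperature, potency fitted from percent-of-control values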
Sequence of KRas G12C (P01116 1-169 isoform P01116-2 G12C): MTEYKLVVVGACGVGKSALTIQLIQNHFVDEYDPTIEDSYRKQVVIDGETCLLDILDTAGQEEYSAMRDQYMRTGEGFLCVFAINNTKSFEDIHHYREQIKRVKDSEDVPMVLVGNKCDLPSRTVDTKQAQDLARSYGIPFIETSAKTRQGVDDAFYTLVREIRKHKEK
Method: as §1

KRas WT = KRas WT (Homo sapiens, UniProt P01116); assay: biochemical;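 also: binding to KRas read as TR-FRET displacement after a one-hour room-temperature incubation, IC50 derived from percent-of-control values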
Sequence of KRas WT (P01116 1-169 isoform P01116-2): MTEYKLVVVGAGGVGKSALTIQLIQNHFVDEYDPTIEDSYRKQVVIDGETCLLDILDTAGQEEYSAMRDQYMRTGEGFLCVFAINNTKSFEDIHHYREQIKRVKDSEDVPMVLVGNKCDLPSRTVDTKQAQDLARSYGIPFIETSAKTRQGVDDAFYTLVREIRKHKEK
Method: as §1

KRas Q61H = target: T2, KRas Q61H (Homo sapiens, UniProt P01116, Q61H); assay: KRas binding assay (TR-FRET displacement);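 also: TR-FRET signal read after one hour at room temperature, IC50 derived by four-parameter fitting of percent-of-control values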
T2 construct: Biotinylated KRas (corresponding to amino acids 1-169, produced at Accelegan Inc.); biotin (biotinylated); purchased Accelegan Inc
T2 sequence (P01116 1-169 isoform P01116-2 Q61H): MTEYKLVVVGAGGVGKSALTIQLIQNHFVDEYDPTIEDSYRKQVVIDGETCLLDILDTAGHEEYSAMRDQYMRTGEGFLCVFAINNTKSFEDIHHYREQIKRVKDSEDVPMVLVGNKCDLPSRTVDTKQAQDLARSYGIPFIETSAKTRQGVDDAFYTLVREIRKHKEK
Method: as §1

Sequence of KRas G12R (P01116 1-169 isoform P01116-2 G12R): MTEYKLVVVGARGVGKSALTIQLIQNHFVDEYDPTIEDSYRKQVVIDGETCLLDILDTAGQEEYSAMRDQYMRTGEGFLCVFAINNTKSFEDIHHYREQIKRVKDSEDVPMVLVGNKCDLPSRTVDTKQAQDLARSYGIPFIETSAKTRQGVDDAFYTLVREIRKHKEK

Compound | IC50 (KRas G12R) [nM] | IC50 (KRas G12V) [nM] | IC50 (KRas G12S) [nM] | IC50 (KRas G12D) [nM] | IC50 (KRas G13D) [nM] | IC50 (KRas G12A) [nM] | IC50 (KRas G12C) [nM] | IC50 (KRas WT) [nM] | IC50 (KRas Q61H) [nM]
O=S1(=O)NCCC2(CCCN(c3nc(OCC45CCCN4CCC5)nc4c(F)c(-c5cccc6cccc(F)c56)ncc34)C2)N1 (stereo not drawn) [Example 247, 8-(8-fluoro-7-(8-fluoronaphthalen-1-yl)-2-((hexahydro-1H-pyrrolizin-7a-yl)methoxy)pyrido[4,3-d]pyrimidin-4-yl)-2-thia-1,3,8-triazaspiro[5.5]undecane 2,2-dioxide] | 2560 | 1830 | 2150 | 429 | 1180 | 2110 | 2680 | 1590 | 2060
NS(=O)(=O)CC1CN(c2nc(OCC34CCCN3CCC4)nc3c(F)c(-c4cccc5cccc(F)c45)ncc23)CCO1 (stereo not drawn) [Example 249, 1-(4-(8-fluoro-7-(8-fluoronaphthalen-1-yl)-2-((tetrahydro-1H-pyrrolizin-7a(5H)-yl)methoxy)pyrido[4,3-d]pyrimidin-4-yl)morpholin-2-yl)methanesulfonamide] | 424 | 1290 | 742 | 7860 | 1280 | 981 | 979 | 1060 | 808
CS(=O)(=O)C1CCCCN(c2nc(OCC34CCCN3CCC4)nc3c(F)c(-c4cccc5cccc(F)c45)ncc23)C1 (stereo not drawn) [Example 250, 8-fluoro-7-(8-fluoronaphthalen-1-yl)-2-((hexahydro-1H-pyrrolizin-7a-yl)methoxy)-4-(3-(methylsulfonyl)azepan-1-yl)pyrido[4,3-d]pyrimidine] | 3990 | 3410 | 3800 | 7310 | 3510 | 3930 | 6840 | 3580 | 5310
CS(=O)(=O)C1CCCCCN(c2nc(OCC34CCCN3CCC4)nc3c(F)c(-c4cccc5cccc(F)c45)ncc23)C1 (stereo not drawn) [Example 251, 8-fluoro-7-(8-fluoronaphthalen-1-yl)-2-((hexahydro-1H-pyrrolizin-7a-yl)methoxy)-4-(3-(methylsulfonyl)azocan-1-yl)pyrido[4,3-d]pyrimidine] | 14600 | 3870 | 5750 | 6830 | 3780 | 6120 | 6400 | 3840 | 6250
O=S1(=O)NCC2(CCCN(c3nc(OCC45CCCN4CCC5)nc4c(F)c(-c5cccc6cccc(F)c56)ncc34)C2)N1 (stereo not drawn) [Example 252, 7-(8-fluoro-7-(8-fluoronaphthalen-1-yl)-2-((tetrahydro-1H-pyrrolizin-7a(5H)-yl)methoxy)pyrido[4,3-d]pyrimidin-4-yl)-2-thia-1,3,7-triazaspiro[4.5]decane 2,2-dioxide] | 27 | 17 | 8 | 11 | 6 | 5 | 17 | 7 | 9
Fc1c(-c2cccc3cccc(F)c23)ncc2c(N3CC(n4cncn4)C3)nc(OCC34CCCN3CCC4)nc12 [Example 253, 4-(3-(1H-1,2,4-triazol-1-yl)azetidin-1-yl)-8-fluoro-7-(8-fluoronaphthalen-1-yl)-2-((hexahydro-1H-pyrrolizin-7a-yl)methoxy)pyrido[4,3-d]pyrimidine] | 4080 | 4350 | 3590 | 67300 | 14100 | 3030 | 2410 | 6000 | 7720
CN(C)CC1(COc2nc(N3CCCC(C)(O)C3)c3cnc(-c4cccc5cccc(F)c45)c(F)c3n2)CC1 (stereo not drawn) [Example 256, 1-(2-((1-((dimethylamino)methyl)cyclopropyl)methoxy)-8-fluoro-7-(8-fluoronaphthalen-1-yl)pyrido[4,3-d]pyrimidin-4-yl)-3-methylpiperidin-3-ol] | 8140 | 4540 | 5310 | 2420 | 3800 | 4630 | 4050 | 4030 | 6020
CC1(O)CCCN(c2nc(OCC3(CN4CCCC4)CC3)nc3c(F)c(-c4cccc5cccc(F)c45)ncc23)C1 (stereo not drawn) [Example 257, 1-(8-fluoro-7-(8-fluoronaphthalen-1-yl)-2-((1-(pyrrolidin-1-ylmethyl)cyclopropyl)methoxy)pyrido[4,3-d]pyrimidin-4-yl)-3-methylpiperidin-3-ol] | 6910 | 3790 | 5220 | 2430 | 3960 | 5490 | 4000 | 4030 | 6030
NC(=O)c1cc2n(n1)CCCN(c1nc(OCC34CCCN3CCC4)nc3c(F)c(-c4cccc5cccc(F)c45)ncc13)C2 [Example 258, 5-(8-fluoro-7-(8-fluoronaphthalen-1-yl)-2-((hexahydro-1H-pyrrolizin-7a-yl)methoxy)pyrido[4,3-d]pyrimidin-4-yl)-5,6,7,8-tetrahydro-4H-pyrazolo[1,5-a][1,4]diazepine-2-carboxamide] | 1180 | 858 | 1010 | 320 | 4380 | 2070 | 1380 | 3250 | 4610
CNC(=O)c1cc2n(n1)CCCN(c1nc(OCC34CCCN3CCC4)nc3c(F)c(-c4cccc5cccc(F)c45)ncc13)C2 [Example 259, 5-(8-fluoro-7-(8-fluoronaphthalen-1-yl)-2-((hexahydro-1H-pyrrolizin-7a-yl)methoxy)pyrido[4,3-d]pyrimidin-4-yl)-N-methyl-5,6,7,8-tetrahydro-4H-pyrazolo[1,5-a][1,4]diazepine-2-carboxamide] | 769 | 380 | 649 | 158 | 3300 | 1520 | 825 | 2210 | 3180
CN(C)C(=O)c1cc2n(n1)CCCN(c1nc(OCC34CCCN3CCC4)nc3c(F)c(-c4cccc5cccc(F)c45)ncc13)C2 [Example 260, 5-(8-fluoro-7-(8-fluoronaphthalen-1-yl)-2-((hexahydro-1H-pyrrolizin-7a-yl)methoxy)pyrido[4,3-d]pyrimidin-4-yl)-N,N-dimethyl-5,6,7,8-tetrahydro-4H-pyrazolo[1,5-a][1,4]diazepine-2-carboxamide] | 455 | 204 | 419 | 61 | 1170 | 294 | 591 | 864 | 1060
OCc1cc2n(n1)CCCN(c1nc(OCC34CCCN3CCC4)nc3c(F)c(-c4cccc5cccc(F)c45)ncc13)C2 [Example 261, (5-(8-fluoro-7-(8-fluoronaphthalen-1-yl)-2-((hexahydro-1H-pyrrolizin-7a-yl)methoxy)pyrido[4,3-d]pyrimidin-4-yl)-5,6,7,8-tetrahydro-4H-pyrazolo[1,5-a][1,4]diazepin-2-yl)methanol] | 2610 | 3980 | 2320 | 1610 | 9610 | 5740 | 2390 | 7100 | 10700
